Holding throughout (experiment): biochemical
What all share (design): species or system human cell line lysate

Assay [1] deals with Mitogen-activated protein kinase kinase kinase kinase 2 ; MAP4K2 ; Q12851 (Homo sapiens, UniProt Q12851).
The target of assay [2] is Mitogen-activated protein kinase kinase kinase 11 ; MAP3K11 ; Q16584 (Homo sapiens, UniProt Q16584).
Assay [3] has as its target Isoform CSBP1 of Mitogen-activated protein kinase 14 ; MAPK14 ; Q16539-2 (Homo sapiens, UniProt Q16539).
The target of assay [4] is Serine/threonine-protein kinase LMTK2 ; LMTK2 ; Q8IWU2 (Homo sapiens, UniProt Q8IWU2).
Assay [5] has as its target Serine/threonine-protein kinase BRSK1 ; BRSK1 ; Q8TDC3 (Homo sapiens, UniProt Q8TDC3).
Assay [6] addresses Receptor-type tyrosine-protein kinase FLT3 ; FLT3 ; P36888 (Homo sapiens, UniProt P36888).
The target in assay [7] is Non-receptor tyrosine-protein kinase TNK1 ; TNK1 ; Q13470 (Homo sapiens, UniProt Q13470).
Assay [8] has as its target Isoform GRK6B of G protein-coupled receptor kinase 6 ; GRK6 ; P43250-2 (Homo sapiens, UniProt P43250).
Assay [9] concerns the target Microtubule-associated serine/threonine-protein kinase 2 ; MAST2 ; Q6P0Q8 (Homo sapiens, UniProt Q6P0Q8).
Assay [10] concerns the target Dual specificity mitogen-activated protein kinase kinase 6 ; MAP2K6 ; P52564 (Homo sapiens, UniProt P52564).
Assay [11] addresses Dual specificity protein kinase CLK1 ; CLK1 ; P49759 (Homo sapiens, UniProt P49759).
For assay [12], the target named is Tyrosine-protein kinase CSK ; CSK ; P41240 (Homo sapiens, UniProt P41240).
Sequence of Tyrosine-protein kinase CSK ; CSK ; P41240 (P41240 whole entry): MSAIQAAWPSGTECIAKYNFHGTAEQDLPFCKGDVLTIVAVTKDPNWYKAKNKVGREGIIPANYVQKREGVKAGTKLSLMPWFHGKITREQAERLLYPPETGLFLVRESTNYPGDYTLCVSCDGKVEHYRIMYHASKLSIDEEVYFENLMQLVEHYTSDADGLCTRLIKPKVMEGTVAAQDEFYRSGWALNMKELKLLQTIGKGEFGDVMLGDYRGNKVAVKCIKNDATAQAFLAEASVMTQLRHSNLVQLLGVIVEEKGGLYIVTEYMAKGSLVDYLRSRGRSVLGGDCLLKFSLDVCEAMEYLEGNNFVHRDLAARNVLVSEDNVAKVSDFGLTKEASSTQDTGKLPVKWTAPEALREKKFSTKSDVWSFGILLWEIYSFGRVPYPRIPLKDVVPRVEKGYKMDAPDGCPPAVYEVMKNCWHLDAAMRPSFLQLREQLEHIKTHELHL
For assay [13], the target named is Ribosomal protein S6 kinase alpha-6 ; RPS6KA6 ; Q9UK32 (Homo sapiens, UniProt Q9UK32).
Sequence of Ribosomal protein S6 kinase alpha-6 ; RPS6KA6 ; Q9UK32 (Q9UK32 whole entry): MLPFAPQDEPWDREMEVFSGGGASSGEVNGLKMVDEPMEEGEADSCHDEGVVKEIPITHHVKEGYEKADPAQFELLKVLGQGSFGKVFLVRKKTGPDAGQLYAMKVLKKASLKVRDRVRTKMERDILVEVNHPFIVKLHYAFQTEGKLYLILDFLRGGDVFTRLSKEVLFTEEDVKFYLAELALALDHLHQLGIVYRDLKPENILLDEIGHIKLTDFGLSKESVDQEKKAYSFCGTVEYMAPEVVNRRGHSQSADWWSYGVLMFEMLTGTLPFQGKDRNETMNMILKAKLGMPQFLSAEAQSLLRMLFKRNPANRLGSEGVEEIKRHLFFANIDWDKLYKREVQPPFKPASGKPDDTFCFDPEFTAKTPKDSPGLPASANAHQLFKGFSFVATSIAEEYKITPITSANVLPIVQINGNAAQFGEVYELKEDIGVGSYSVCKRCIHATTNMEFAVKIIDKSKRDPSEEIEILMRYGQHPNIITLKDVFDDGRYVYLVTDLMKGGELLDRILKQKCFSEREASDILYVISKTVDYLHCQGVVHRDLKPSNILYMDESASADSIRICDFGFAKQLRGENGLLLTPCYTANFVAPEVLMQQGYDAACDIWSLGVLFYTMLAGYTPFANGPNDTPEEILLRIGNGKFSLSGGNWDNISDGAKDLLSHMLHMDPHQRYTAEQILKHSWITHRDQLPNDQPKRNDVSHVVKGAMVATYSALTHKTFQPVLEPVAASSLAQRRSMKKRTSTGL
Assay [14] has as its target MAP/microtubule affinity-regulating kinase 4 ; MARK4 ; Q96L34 (Homo sapiens, UniProt Q96L34).
Assay [15] has as its target Isoform 2 of Ribosomal protein S6 kinase alpha-1 ; RPS6KA1 ; Q15418-2 (Homo sapiens, UniProt Q15418).
In assay [16] the target is DNA-dependent protein kinase catalytic subunit ; PRKDC ; P78527 (Homo sapiens, UniProt P78527).
Assay [17] addresses Maternal embryonic leucine zipper kinase ; MELK ; Q14680 (Homo sapiens, UniProt Q14680).
Assay [18] concerns the target Protein kinase C delta type ; PRKCD ; Q05655 (Homo sapiens, UniProt Q05655).
Assay [19] has as its target SNF-related serine/threonine-protein kinase ; SNRK ; Q9NRH2 (Homo sapiens, UniProt Q9NRH2).
Assay [20] deals with Serine/threonine-protein kinase 35 ; STK35 ; Q8TDR2 (Homo sapiens, UniProt Q8TDR2).
Sequence of Serine/threonine-protein kinase 35 ; STK35 ; Q8TDR2 (Q8TDR2 whole entry, one chain of several): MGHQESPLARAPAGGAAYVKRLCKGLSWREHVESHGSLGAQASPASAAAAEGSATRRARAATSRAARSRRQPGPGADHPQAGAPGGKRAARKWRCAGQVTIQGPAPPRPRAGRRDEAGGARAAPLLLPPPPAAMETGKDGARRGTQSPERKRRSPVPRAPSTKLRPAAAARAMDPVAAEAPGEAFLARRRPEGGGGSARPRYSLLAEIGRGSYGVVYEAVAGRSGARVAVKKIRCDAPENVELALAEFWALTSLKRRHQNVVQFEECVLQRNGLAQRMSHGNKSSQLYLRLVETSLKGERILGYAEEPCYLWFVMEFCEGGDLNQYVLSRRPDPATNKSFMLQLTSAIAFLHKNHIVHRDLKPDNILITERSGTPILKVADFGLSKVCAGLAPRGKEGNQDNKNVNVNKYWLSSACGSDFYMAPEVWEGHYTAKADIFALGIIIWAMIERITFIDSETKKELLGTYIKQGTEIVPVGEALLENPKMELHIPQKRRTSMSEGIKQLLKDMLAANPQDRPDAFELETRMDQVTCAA
Assay [21] addresses Mitogen-activated protein kinase kinase kinase 6 ; MAP3K6 ; O95382 (Homo sapiens, UniProt O95382).
The target in assay [22] is Serine/threonine-protein kinase TAO1 ; TAOK1 ; Q7L7X3 (Homo sapiens, UniProt Q7L7X3).
For assay [23], the target named is Nucleoside diphosphate kinase, mitochondrial ; NME4 ; O00746 (Homo sapiens, UniProt O00746).
Sequence of Nucleoside diphosphate kinase, mitochondrial ; NME4 ; O00746 (O00746 whole entry): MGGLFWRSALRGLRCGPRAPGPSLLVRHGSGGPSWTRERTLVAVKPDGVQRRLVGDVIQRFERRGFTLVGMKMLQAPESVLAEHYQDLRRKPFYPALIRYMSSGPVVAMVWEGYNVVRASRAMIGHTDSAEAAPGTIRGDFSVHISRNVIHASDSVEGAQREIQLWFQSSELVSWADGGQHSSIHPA
Setting [24] is: read-out: BAY-1143572 (10 µM) / %Intensity relative to DMSO.
[25] abbreviates: read-out: BAY-1251152 (10 µM) / %Intensity relative to DMSO.

For 2 compounds, remaining activity results are on record in doi:10.1101/2024.08.13.607785v1 (biorxiv, 2024).

Structures are written as SMILES. Read-outs that look alike come from different tables or passages of the source.

Sequence of Serine/threonine-protein kinase BRSK1 ; BRSK1 ; Q8TDC3 (Q8TDC3 whole entry, one chain of several): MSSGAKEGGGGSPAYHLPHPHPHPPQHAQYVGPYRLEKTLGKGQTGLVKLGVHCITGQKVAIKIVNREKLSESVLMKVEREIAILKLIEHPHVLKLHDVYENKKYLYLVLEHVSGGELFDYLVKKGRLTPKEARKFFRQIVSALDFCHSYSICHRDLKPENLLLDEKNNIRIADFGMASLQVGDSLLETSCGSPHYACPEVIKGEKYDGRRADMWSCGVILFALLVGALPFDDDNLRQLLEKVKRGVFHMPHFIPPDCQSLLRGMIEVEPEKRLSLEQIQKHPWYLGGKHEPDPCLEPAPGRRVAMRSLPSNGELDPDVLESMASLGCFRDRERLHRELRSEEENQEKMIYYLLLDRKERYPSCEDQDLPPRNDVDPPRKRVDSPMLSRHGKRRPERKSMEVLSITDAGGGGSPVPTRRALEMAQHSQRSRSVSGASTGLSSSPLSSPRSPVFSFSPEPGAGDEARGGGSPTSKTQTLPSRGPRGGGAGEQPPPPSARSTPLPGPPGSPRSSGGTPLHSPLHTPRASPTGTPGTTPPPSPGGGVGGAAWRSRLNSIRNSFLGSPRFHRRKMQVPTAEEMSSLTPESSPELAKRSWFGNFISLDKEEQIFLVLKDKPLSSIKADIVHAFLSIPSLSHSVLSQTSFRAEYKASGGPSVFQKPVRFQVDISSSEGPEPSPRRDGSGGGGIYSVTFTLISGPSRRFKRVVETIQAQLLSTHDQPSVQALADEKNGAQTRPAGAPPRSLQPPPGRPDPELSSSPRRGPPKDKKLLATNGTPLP
Sequence of MAP/microtubule affinity-regulating kinase 4 ; MARK4 ; Q96L34 (Q96L34 whole entry, canonical isoform, one chain of several): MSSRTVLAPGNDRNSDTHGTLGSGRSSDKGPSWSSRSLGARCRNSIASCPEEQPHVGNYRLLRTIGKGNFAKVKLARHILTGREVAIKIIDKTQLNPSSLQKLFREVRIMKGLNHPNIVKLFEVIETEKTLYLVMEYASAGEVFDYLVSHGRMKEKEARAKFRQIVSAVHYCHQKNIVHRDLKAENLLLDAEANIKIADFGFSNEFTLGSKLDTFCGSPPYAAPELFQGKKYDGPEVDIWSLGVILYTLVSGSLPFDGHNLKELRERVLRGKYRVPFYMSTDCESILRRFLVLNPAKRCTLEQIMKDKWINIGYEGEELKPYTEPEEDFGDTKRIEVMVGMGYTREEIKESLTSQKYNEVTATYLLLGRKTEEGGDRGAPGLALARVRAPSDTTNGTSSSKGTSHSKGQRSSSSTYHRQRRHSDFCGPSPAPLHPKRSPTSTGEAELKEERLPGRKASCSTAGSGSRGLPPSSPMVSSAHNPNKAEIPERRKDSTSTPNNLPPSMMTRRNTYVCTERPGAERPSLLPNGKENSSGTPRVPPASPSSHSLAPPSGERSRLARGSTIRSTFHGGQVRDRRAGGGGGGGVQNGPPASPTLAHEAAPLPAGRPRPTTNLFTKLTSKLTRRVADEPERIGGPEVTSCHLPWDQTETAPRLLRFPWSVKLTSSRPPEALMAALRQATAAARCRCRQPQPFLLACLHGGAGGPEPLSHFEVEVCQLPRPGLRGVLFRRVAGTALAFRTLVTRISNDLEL
Sequence of SNF-related serine/threonine-protein kinase ; SNRK ; Q9NRH2 (Q9NRH2 whole entry, one chain of several): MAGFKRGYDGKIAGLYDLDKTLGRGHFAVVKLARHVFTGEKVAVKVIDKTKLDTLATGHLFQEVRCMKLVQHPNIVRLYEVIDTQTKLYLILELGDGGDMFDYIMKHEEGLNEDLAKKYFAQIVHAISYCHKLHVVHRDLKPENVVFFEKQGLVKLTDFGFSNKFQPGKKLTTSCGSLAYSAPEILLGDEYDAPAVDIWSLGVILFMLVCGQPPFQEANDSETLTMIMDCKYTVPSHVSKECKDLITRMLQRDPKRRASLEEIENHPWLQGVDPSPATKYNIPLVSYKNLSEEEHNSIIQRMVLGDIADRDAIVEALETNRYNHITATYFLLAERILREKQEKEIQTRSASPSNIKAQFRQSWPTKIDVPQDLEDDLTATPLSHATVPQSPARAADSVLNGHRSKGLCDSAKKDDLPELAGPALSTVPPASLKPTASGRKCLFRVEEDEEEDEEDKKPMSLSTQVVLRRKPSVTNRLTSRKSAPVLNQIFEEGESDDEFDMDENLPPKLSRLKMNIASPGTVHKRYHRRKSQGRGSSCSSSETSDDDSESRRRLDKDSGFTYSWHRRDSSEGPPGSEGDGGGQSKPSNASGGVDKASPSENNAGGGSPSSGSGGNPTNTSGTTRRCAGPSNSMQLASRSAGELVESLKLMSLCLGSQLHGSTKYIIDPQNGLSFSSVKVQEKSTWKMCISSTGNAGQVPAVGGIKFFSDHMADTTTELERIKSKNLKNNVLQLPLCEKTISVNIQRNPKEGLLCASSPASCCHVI
Sequence of Isoform 2 of Ribosomal protein S6 kinase alpha-1 ; RPS6KA1 ; Q15418-2 (Q15418 whole entry, canonical isoform): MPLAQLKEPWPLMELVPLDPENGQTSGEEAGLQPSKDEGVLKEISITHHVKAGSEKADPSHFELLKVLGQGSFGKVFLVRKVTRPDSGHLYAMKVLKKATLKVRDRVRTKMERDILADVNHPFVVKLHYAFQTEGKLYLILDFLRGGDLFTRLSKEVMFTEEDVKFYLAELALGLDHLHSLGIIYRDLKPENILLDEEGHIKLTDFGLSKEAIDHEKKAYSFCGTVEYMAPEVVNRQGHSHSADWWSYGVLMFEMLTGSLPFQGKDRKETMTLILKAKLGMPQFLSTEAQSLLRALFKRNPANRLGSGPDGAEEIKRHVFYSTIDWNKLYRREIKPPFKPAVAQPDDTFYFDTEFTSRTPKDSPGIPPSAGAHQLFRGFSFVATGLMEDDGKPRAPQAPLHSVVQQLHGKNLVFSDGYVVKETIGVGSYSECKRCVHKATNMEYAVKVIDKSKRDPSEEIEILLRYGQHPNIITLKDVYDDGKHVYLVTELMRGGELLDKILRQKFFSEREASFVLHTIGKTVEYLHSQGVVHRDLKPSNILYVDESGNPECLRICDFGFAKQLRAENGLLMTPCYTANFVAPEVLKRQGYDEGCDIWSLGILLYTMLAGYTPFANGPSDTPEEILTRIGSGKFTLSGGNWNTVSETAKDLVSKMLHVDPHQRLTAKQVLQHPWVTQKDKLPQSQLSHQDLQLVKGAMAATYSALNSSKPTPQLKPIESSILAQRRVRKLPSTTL

For `COc1cc(F)ccc1-c1ncnc(Nc2cccc(C[S@](C)(=N)=O)c2)n1` [BAY-1143572], the remaining activity at 10 µM in assay [1] (setting [24]) stood at 106%; in [2] (setting [24]), 105%; in [3] (setting [24]) it was 133%; in [4] (setting [24]) it was 128%; in assay [5] (setting [24]) it was 95.3%; in assay [6] (setting [24]) it was 70.5%. In addition, the remaining activity at 10 µM in assay [7] (setting [24]) was 113%; in [8] (setting [24]), 137%; in assay [9] (setting [24]), 42.2%; in [10] (setting [24]) it was 142%; in [11] (setting [24]), 116%; in assay [12] (setting [24]) it was 112%. The remaining activity at 10 µM in assay [13] (setting [24]) amounted to 133%; in [14] (setting [24]), 110%; in assay [15] (setting [24]) it was 116%; in assay [16] (setting [24]), 106%; in assay [17] (setting [24]), 116%; in [18] (setting [24]) it was 97.1%. Also, the remaining activity at 10 µM turned out to be 191% in assay [19] (setting [24]); 115% in [20] (setting [24]); 103% in [21] (setting [24]); 114% in [22] (setting [24]); 79.4% in assay [23] (setting [24]).
As to `COc1cc(F)ccc1-c1cc(Nc2cc(CS(C)(=N)=O)ccn2)ncc1F` (stereo not shown) [BAY-1251152], the remaining activity at 10 µM in assay [1] (setting [25]) is 73.8%; in assay [2] (setting [25]), 81%; in assay [3] (setting [25]), 120%; in [4] (setting [25]), 126%; in assay [5] (setting [25]), 96%; in assay [6] (setting [25]) it was 84.2%. Further, the remaining activity at 10 µM in [7] (setting [25]) is 109%; in assay [8] (setting [25]), 111%; in assay [9] (setting [25]), 32.9%; in [10] (setting [25]), 123%; in [11] (setting [25]) it was 104%; in assay [12] (setting [25]), 106%. Also, the remaining activity at 10 µM in assay [13] (setting [25]) stood at 118%; in assay [14] (setting [25]) it was 105%; in assay [15] (setting [25]) it was 108%; in assay [16] (setting [25]), 107%; in assay [17] (setting [25]), 110%; in assay [18] (setting [25]) it was 97.3%. Also, the remaining activity at 10 µM in assay [19] (setting [25]) came to 147%; in assay [20] (setting [25]) it was 113%; in assay [21] (setting [25]), 103%; in [22] (setting [25]), 88.3%; in assay [23] (setting [25]), 94.8%.
